Assay [1] has as its target T1, α-Synuclein aggregates (Homo sapiens, UniProt P37840).
T1 construct: purchased Proteos Inc RP-002
The assay can be described thus: Fluorescence binding assay with protein aggregates (fluorescence spectrophotometer). Conditions: compound 5 µM, 37°C, 5 min. The method, then: (§1) First, the compound was a final concentration of 5 µM by dissolved in 50 mM Tris-buffer (pH 7.0) with 0.0025% (v/v) DMSO. Then, Aβ, α-Synuclein, and Tau aggregates were added, with their final concentrations being 0.02, 0.04, 0.08, 0.16, 0.32, 0.64, and 1.28 µM, respectively. Subsequently, the fluorescence measurements were detected using a fluorescence spectrophotometer (Horiba, Fluorolog3).
α-synuclein Aggregates (Proteos Inc; catalog No.: RP-002).
(§2) Tau aggregates: The cDNA sequence of Tau was inserted into a plasmid carrying a GST tag, which was then transfected into BL21 bacteria for protein expression. Bacterial pellets were resuspended in high-salt buffer (0.75 M NaCl, 50 mM Tris, pH 7.4, 1 mM EDTA), sonicated, and centrifuged at 70,000 x g for 30 min. The supernatants were applied onto a Glutathione sepharose beads column (GE Healthcare) and purified by GST tag. Thrombin was used to remove the GST tag. The protein was dialyzed with FPLC buffer (50 mM NaCl, 50 mM Tris- HCl pH 7.4). The protein was filtered through a 0.22 µm syringe filter. The concentration of Tau was adjusted to 3 mg/mL, 12.5 µM heparin was added, and the mixture was shaken at 37 °C and 300 rpm for 7 days to prepare Tau aggregates. • Incubation Concentrations: 0.02, 0.04, 0.08, 0.16, 0.32, 0.64, and 1.28 µM; • Incubation Temperature: 37°C; • Incubation Duration: 5 min; • Detection Wavelengths: [formula]
(§3) Statistical analysis was performed using GraphPad Prism® version 8.2.1.

The target of assay [2] is T2, Aβ aggregates (Homo sapiens, UniProt P05067).
T2 construct: Aβ (1-42) peptide (rPeptide; catalog No.: A-1163-1); purchased rPeptide A-1163-1
Described as above. To be noted: Aβ aggregates; compound 5 µM, 37°C, 5 min. The protocol: as §1
Aβ PFF: Aβ (1-42) peptide (rPeptide; catalog No.: A-1163-1) was resolved in 9 volumes of ice-cold distilled water and vortexed occasionally. After 30 min, one volume of 10X fibril-forming buffer (0.2 M NaPi, 1.5 M NaCl, 0.2% NaN3, pH 7.5) was added. The final concentration of peptide was 1 mg/ml. The solution was incubated at 37 °C for one week.
as §2, §3

The test system of assay [3] is α-Syn aggregated neurons. The assay can be described thus: Staining of primary cultured neurons infected with AAV α-Syn and treated with α-Syn PFFs, fluorescence microscopy. Format: cell-based, Sprague-Dawley rats. Conditions: compounds 0.1 mM; Fig. 1. The protocol: Primary cultured neurons were infected with adeno-associated virus (AAV) encoding a-Syn for 7 days and then treated with a-Syn PFFs. The candidate compounds were added to the primary neurons with the indicated aggregates and analyzed using fluorescence microscopy.
Primary hippocampal neurons were isolated from […] pregnant rats. The Sprague-Dawley rats were used at embryonic E18 days. The cortical tissue was isolated, dissociated, and incubated with 5 ml of D-Hanks containing 0.25% trypsin for 5 min at 37 °C in a humidified atmosphere of 5% CO2, centrifuged at 1000 x g for 5 min after addition of 4 ml of the neuronal plating medium containing DMEM/F12 with 10% fetal bovine serum. The 1 × 10^5 cells were plated in 6-well plates for further process. DIV7 neurons were infected with AAV α-Syn FL virus and at DIV12, the neurons were transduced with 100 ng/ml α-Syn PFF, α-Syn 1-140 were incubated with the cultured primary neurons in sterile PBS to a final concentration of 0.1 mg/ml. Sonicated PFFs, or an equivalent volume of the monomer as a control, were transferred into pre-warmed neuronal medium at a final concentration of 100 ng/ml. The samples were immune-stained with anti-p-α-Syn S129 (Abcam; Catalog No.: ab59264) (pseudo-colors were converted to red) to detect a-Syn aggregates and then stained with ThT (Sigma; Catalog No.: S96200) or compounds (0.1 mM).

In assay [4] the target is T3, Aβ (Homo sapiens, UniProt P05067).
T3 construct: tissue The Jackson Laboratory 034840; host or cells: brain of 5xFAD mice, compound injected in vivo, sections made afterwards
The assay can be described thus: In vivo validation: tail vein injection, then staining of brain sections. Conditions: 2 mg/kg tail vein injection; 0.5 hours after administration. More on the design: species or system 5xFAD mice. The protocol:
In vivo validation of the compounds was performed using 8-month-old wild-type mice (Jiangsu Aniphe Biolaboratory Inc), 12-month-old 5xFAD mice (The Jackson Laboratory; Catalog No.: 034840), 6-month-old Tau P301S mice (The Jackson Laboratory; Catalog No.: 008169), and rotenone-treated α-Syn A53T mice (The Jackson Laboratory; Catalog No.: 017682). All mice were stratified by sex and randomly divided into groups, and the compounds were administered via tail vein injection at a dose of 2 mg/kg. Tissues were harvested and mouse brain sections were prepared 0.5 hours after administration, followed by staining with anti-Aβ (Biolegend; Catalog No.: SIG-39300) or AT8 (Thermo Fisher; Catalog No.: MN1020) together with the compounds, respectively.

Assay [5] addresses T4, p-α-Syn S129 (Homo sapiens, UniProt P37840).
T4 construct: from tissue; host or cells: human DLB patient brain sections
Nature of the assay: Ex vivo staining of human DLB patient brain sections. Format: binding. To be noted: DLB patient brain slides; Fig. 3. The method, then: (§4) The ex vivo screening was extended into human DLB, and AD patient samples. Neurodegenerative diseases of DLB belong to synucleino-pathies with well-defined Lewy bodies. Therefore, the positive compounds should show robust signals with LBs and LNs.
(§5) For immunohistochemical staining, deparaffinized and antigen-retrieved 20 µm-thick human brain sections were treated with 0.3% H2O2 at room temperature for 10 min. Subsequently, the sections were washed in PBS with 0.3% Triton X-100 3 times and then blocked with 1% BSA for 30 min, followed by overnight incubation with anti-Aβ/AT8/α-Syn pS129 antibody at 4 °C. The signal was developed using a Histostain-SP kit (Invitrogen, Catalog No.: 95-9943). After washing, the sections were covered with a glass cover using mounting solution.

In assay [6] the test system is Aβ plaques. The assay can be described thus: Ex vivo staining of human AD patient brain sections. Format: binding. Conditions: AD brains; Fig. 3. The method, then: as §4, §5
Assay [7] concerns AT8-positive NFTs. Described as above. Format: binding. Conditions: AD brains; Fig. 3. The protocol:
as §4, §5

T3 sequence (P05067 672-713 limits assumed): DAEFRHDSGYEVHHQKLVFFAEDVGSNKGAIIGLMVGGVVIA
T2 sequence (P05067 672-713): as the sequence (P05067 672-713 limits assumed) above

What is called Kd is the concentration at which binding is half-saturated. On to `Cc1cc2nc(/C=C/c3ccc(O)c(N)c3)sc2cc1N(C)CCOCCF` [Compound C, (E)-2-amino-4-(2-(6-((2-(2-fluoroethoxy)ethyl)(methyl)amino)-5-methylbenzo[d]thiazol-2-yl)vinyl)phenol], for which the values for the dissociation constant Kd in assay [1] and in assay [2] were 0.314 µM and 1.51 µM, respectively. Further, in assay [3], the “signals in α-Syn aggregated neurons” value is on record as “selectively yielded positive signals”. In assay [4], the “specific binding to Aβ” value is “no specific binding”. In addition, in assay [5], the “costaining with p-α-Syn S129” value is recorded as “costained”. Moreover, the “staining of Aβ plaques” value in assay [6] is given as “did not stain”. Also, the “staining of AT8-positive NFTs” value in assay [7] was “did not stain”.
Regarding `COc1c(/C=C/c2nc3cc(C)c(N(C)CCOCCF)cc3s2)ccc(O)c1Br` [Compound E, (E)-2-bromo-4-(2-(6-((2-(2-fluoroethoxy)ethyl)(methyl)amino)-5-methylbenzo[d]thiazol-2-yl)vinyl)-3-methoxyphenol], the values for the dissociation constant (Kd) in assay [1] and in assay [2] were 0.0156 µM and 0.0872 µM, respectively. Also, the “signals in α-Syn aggregated neurons” value in assay [3] was “selectively yielded positive signals”. For the same molecule, in assay [4], the “specific binding to Aβ” value is on record as “no specific binding”. Further, the “costaining with p-α-Syn S129” value in assay [5] was “costained”. Also, the “staining of Aβ plaques” value in assay [6] was “did not stain”. Also, the “staining of AT8-positive NFTs” value in assay [7] is on record as “did not stain”.
Take `CCN(CCOCCF)c1cc2sc(/C=C/c3ccc(O)c(Br)c3)nc2cc1C` [Compound R, (E)-2-bromo-4-(2-(6-(ethyl(2-(2-fluoroethoxy)ethyl)amino)-5-methylbenzo[d]thiazol-2-yl)vinyl)phenol]: the results for the Kd in assay [1] and in assay [2] were 0.0809 µM and 1.27 µM, respectively. The “signals in α-Syn aggregated neurons” value in assay [3] is reported as “selectively yielded positive signals”. For the same molecule, the “specific binding to Aβ” value in assay [4] is given as “no specific binding”. Also, the “costaining with p-α-Syn S129” value in assay [5] is reported as “costained”. In addition, in assay [6], the “staining of Aβ plaques” value is listed as “did not stain”. The “staining of AT8-positive NFTs” value in assay [7] is “did not stain”.

Source of the values: EP4733299A1, “SULFUR-CONTAINING FUSED RING COMPOUND, PHARMACEUTICAL COMPOSITION CONTAINING SAME, AND PREPARATION METHOD THEREFOR AND USE THEREOF” (Shenzhen Braegen Pharmaceutical Co., Ltd., priority 2023, dated 2024).
